Among the test systems are DU-145 prostate; HCC-2998 colon; MALME-3M melanoma; MDA-MB-231 breast; NCI-H522 lung; OVCAR-3 ovarian; OVCAR-4 ovarian; SN12C renal; TK-10 renal; UACC-62 melanoma.
What all share (test): growth of human tumour cells (NCI), 48 h

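Assay format: 96-well plates, 48-hour exposure. GI50 = concentration required for 50% inhibition of growth. At the TGI there is no net growth.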 Where a SMILES comes first, the peptide text is derived from it. The star is where a group is joined. Bn = c1ccc(C*)cc1

Take `C=C1C(=O)OC2/C=C(/C)C3(O)OC(C)(CC(OC(=O)C(C)C)C12)CC3OC(C)=O` (stereo not drawn): the TGI in the experiment with DU-145 prostate was above 69.6 µM; in the experiment with HCC-2998 colon it was 16.5 µM; in the experiment with MALME-3M melanoma, 36.5 µM; with MDA-MB-231 breast, above 42.6 µM; with NCI-H522 lung, 6.25 µM; with OVCAR-3 ovarian, 29.8 µM. Also, the TGI is above 65.5 µM in the experiment with OVCAR-4 ovarian, 17.5 µM with SN12C renal, 24.4 µM in the experiment with TK-10 renal and 31.6 µM with UACC-62 melanoma.

Consider `CC12CC1C(c1cccc([N+](=O)[O-])c1)(c1cccc([N+](=O)[O-])c1)N=N2` (stereo not drawn), for which the TGI is above 100 µM in the experiment on DU-145 prostate; above 100 µM in the experiment with HCC-2998 colon; 53.1 µM in the experiment with MALME-3M melanoma; 39.1 µM in the experiment on MDA-MB-231 breast; 23.2 µM with NCI-H522 lung; above 100 µM in the experiment with OVCAR-3 ovarian. Also, the TGI in the experiment with OVCAR-4 ovarian was 80.3 µM; in the experiment with SN12C renal it was 55 µM; with TK-10 renal, above 100 µM; in the experiment with UACC-62 melanoma it was 44.1 µM.

Regarding `O=C(O)c1c2c(cc3c1CC1(Cc4ccccc4C1=O)C3)CCC2` (stereo not drawn), the TGI in the experiment with DU-145 prostate is above 100 µM; in the experiment on HCC-2998 colon it was 13.4 µM; in the experiment on MALME-3M melanoma it was 76.6 µM; in the experiment on MDA-MB-231 breast it was above 100 µM; in the experiment on NCI-H522 lung, 64.5 µM; in the experiment on OVCAR-3 ovarian, above 100 µM. In addition, the TGI in the experiment with OVCAR-4 ovarian, in the experiment on SN12C renal, with TK-10 renal and in the experiment on UACC-62 melanoma was above 100 µM each time.

For `COC(=O)c1cc2c(cc1CC(Cc1ccc3c(c1)CCC3)C(=O)OC)CCC2` (stereo not drawn), the TGI in the experiment on DU-145 prostate, in the experiment on HCC-2998 colon, in the experiment with MALME-3M melanoma, in the experiment on MDA-MB-231 breast, in the experiment on NCI-H522 lung and in the experiment with OVCAR-3 ovarian was above 100 µM in each case. Besides, the TGI is 81.8 µM in the experiment on OVCAR-4 ovarian, above 100 µM in the experiment with SN12C renal, above 100 µM in the experiment with TK-10 renal and above 100 µM in the experiment with UACC-62 melanoma.

In the case of `Clc1ccc(Cl)c(SCCCN2CCNCC2)c1`, the TGI was found to be 36 µM in the experiment on DU-145 prostate; 12.8 µM with HCC-2998 colon; 31.8 µM in the experiment on MALME-3M melanoma; 31.7 µM in the experiment on MDA-MB-231 breast; 34 µM in the experiment on NCI-H522 lung; 47.4 µM in the experiment with OVCAR-3 ovarian. For the same molecule, the TGI in the experiment on OVCAR-4 ovarian amounted to 47.9 µM; in the experiment on SN12C renal, 37.8 µM; in the experiment with TK-10 renal it was 31.4 µM; in the experiment on UACC-62 melanoma it was 7.85 µM.

Consider `COc1cc(OCc2ccc3nc(OC)c(OC)nc3c2)cc(OC)c1OC`, for which the TGI with DU-145 prostate, in the experiment on HCC-2998 colon, in the experiment with MALME-3M melanoma, in the experiment on MDA-MB-231 breast, in the experiment on NCI-H522 lung and in the experiment on OVCAR-3 ovarian was above 10 µM each time. Moreover, the TGI in the experiment with OVCAR-4 ovarian, in the experiment on SN12C renal, in the experiment on TK-10 renal and with UACC-62 melanoma was above 10 µM each time.

As to `COc1c(O)c(O)cc2c1-c1ccc(OC)c(=O)cc1C(NC(C)=O)CC2` (stereo not drawn), the TGI in the experiment on DU-145 prostate is 40.6 µM; in the experiment with HCC-2998 colon, 74.8 µM; in the experiment with MALME-3M melanoma, above 100 µM; in the experiment with MDA-MB-231 breast it was above 59.4 µM; in the experiment with NCI-H522 lung, 3.5 µM; in the experiment with OVCAR-3 ovarian, 5.77 µM. Further, the TGI is 77.2 µM in the experiment with OVCAR-4 ovarian, 42.5 µM with SN12C renal, above 100 µM in the experiment with TK-10 renal and 24.8 µM in the experiment with UACC-62 melanoma.

On to `OCC(O)C(O)C(O)/C=N/Nc1nc(O)c(/C=C2\C=Nc3ccccc32)[nH]1` (stereo not drawn), for which the TGI in the experiment on DU-145 prostate, with HCC-2998 colon, in the experiment on MALME-3M melanoma, in the experiment on MDA-MB-231 breast, in the experiment on NCI-H522 lung and with OVCAR-3 ovarian was above 100 µM in each case. The TGI in the experiment with OVCAR-4 ovarian, in the experiment with SN12C renal, in the experiment on TK-10 renal and with UACC-62 melanoma was above 100 µM each time.

For the molecule `COC(=O)C(CC(C)C)NC(=O)C(N)Cc1ccc(OCc2ccccc2)cc1` (stereo not drawn) (H-Tyr(Bn)-Leu-OMe; configuration not given here), the TGI was above 10 µM with DU-145 prostate; above 10 µM with HCC-2998 colon; 6.62 µM in the experiment with MALME-3M melanoma; above 10 µM in the experiment on MDA-MB-231 breast; above 10 µM in the experiment with NCI-H522 lung; above 10 µM with OVCAR-3 ovarian. For the same molecule, the TGI in the experiment with OVCAR-4 ovarian, with SN12C renal, in the experiment on TK-10 renal and in the experiment on UACC-62 melanoma was above 10 µM each time.

Consider `O/C(=C\c1nc2ccccc2nc1NC12CC3CC(CC(C3)C1)C2)c1ccc(Br)cc1`, for which the TGI in the experiment on DU-145 prostate, in the experiment on HCC-2998 colon, in the experiment with MALME-3M melanoma, in the experiment on MDA-MB-231 breast, with NCI-H522 lung and with OVCAR-3 ovarian was above 10 µM in each case. For the same molecule, the TGI with OVCAR-4 ovarian, in the experiment on SN12C renal, in the experiment with TK-10 renal and with UACC-62 melanoma was above 10 µM throughout.

For the molecule `Cc1c2ccncc2c(C)c2c1[nH]c1ccccc12`, the GI50 is 0.695 µM with DU-145 prostate, 1.45 µM in the experiment on MDA-MB-231 breast and 0.79 µM with TK-10 renal. The TGI in the experiment with DU-145 prostate is 2.13 µM; in the experiment with HCC-2998 colon, 4.87 µM; with MALME-3M melanoma, 4.92 µM; in the experiment with MDA-MB-231 breast, 6.03 µM; in the experiment on NCI-H522 lung it was 2.93 µM; with OVCAR-3 ovarian, 2.65 µM. In addition, the TGI with OVCAR-4 ovarian stood at 2.66 µM; in the experiment with SN12C renal, 4.63 µM; with TK-10 renal, 2.6 µM; in the experiment on UACC-62 melanoma, 6.02 µM.

Turning to `COc1ccc(/C=N/N2C(=O)c3c(N)c(C#N)c(-c4ccccc4)c(-c4ccccc4)c3C2=O)cc1`, the TGI with DU-145 prostate, in the experiment with HCC-2998 colon, in the experiment with MALME-3M melanoma, with MDA-MB-231 breast, in the experiment on NCI-H522 lung and in the experiment with OVCAR-3 ovarian was above 100 µM in each case. In addition, the TGI in the experiment on OVCAR-4 ovarian, in the experiment with SN12C renal, in the experiment with TK-10 renal and in the experiment on UACC-62 melanoma was above 100 µM throughout.

As for `Cc1cn2c(C)csc2c1P(=O)(OC(C)C)OC(C)C`, the TGI with DU-145 prostate, with HCC-2998 colon, in the experiment on MALME-3M melanoma, in the experiment on MDA-MB-231 breast, in the experiment on NCI-H522 lung and in the experiment with OVCAR-3 ovarian was above 100 µM each time. The TGI in the experiment with OVCAR-4 ovarian, in the experiment on SN12C renal, in the experiment with TK-10 renal and in the experiment on UACC-62 melanoma was above 100 µM in each case.
